# Results taken from patent US20260138961A1, “MODULATORS OF MITOCHONDRIAL DNA REPLICATION” (Pretzel Therapeutics, Inc., priority 2022, published 2026).
# Molecular target: T1, human POLγ 3′-5′ exonuclease activity (Homo sapiens, UniProt P54098)
# T1 sequence (P54098 1-1239): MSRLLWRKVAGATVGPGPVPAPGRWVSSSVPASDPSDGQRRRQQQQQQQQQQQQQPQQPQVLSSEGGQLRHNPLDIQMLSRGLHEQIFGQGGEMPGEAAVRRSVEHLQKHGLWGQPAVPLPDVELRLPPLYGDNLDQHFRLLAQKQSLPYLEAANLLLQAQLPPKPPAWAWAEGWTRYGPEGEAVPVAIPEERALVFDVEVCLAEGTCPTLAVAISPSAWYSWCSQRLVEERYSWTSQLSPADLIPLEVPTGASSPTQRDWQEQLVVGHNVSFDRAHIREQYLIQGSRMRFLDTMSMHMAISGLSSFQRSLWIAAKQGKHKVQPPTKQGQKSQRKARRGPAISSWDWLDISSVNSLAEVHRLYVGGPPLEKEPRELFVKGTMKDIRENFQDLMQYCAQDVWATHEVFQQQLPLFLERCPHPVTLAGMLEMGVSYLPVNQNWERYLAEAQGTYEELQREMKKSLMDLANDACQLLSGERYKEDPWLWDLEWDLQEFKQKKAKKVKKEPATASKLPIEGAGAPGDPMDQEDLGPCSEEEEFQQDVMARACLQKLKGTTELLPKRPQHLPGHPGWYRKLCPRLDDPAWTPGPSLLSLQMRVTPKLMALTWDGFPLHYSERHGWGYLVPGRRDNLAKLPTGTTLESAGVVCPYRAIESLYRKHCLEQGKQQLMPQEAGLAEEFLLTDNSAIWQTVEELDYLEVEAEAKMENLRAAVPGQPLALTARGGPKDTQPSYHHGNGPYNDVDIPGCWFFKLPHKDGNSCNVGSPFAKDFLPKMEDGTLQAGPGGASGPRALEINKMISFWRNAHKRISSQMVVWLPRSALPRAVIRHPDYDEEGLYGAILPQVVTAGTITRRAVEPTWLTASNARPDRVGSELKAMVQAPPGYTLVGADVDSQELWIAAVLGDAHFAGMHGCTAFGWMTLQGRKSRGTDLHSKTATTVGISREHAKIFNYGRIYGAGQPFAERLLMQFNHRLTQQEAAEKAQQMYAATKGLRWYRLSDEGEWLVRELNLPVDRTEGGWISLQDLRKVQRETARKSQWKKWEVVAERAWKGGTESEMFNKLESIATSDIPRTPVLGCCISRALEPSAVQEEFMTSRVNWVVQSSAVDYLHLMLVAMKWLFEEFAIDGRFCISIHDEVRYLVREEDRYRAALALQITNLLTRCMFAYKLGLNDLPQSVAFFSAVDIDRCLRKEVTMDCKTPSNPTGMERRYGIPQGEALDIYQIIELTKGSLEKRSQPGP
# T1 sequence (Q9UHN1 1-485 partner): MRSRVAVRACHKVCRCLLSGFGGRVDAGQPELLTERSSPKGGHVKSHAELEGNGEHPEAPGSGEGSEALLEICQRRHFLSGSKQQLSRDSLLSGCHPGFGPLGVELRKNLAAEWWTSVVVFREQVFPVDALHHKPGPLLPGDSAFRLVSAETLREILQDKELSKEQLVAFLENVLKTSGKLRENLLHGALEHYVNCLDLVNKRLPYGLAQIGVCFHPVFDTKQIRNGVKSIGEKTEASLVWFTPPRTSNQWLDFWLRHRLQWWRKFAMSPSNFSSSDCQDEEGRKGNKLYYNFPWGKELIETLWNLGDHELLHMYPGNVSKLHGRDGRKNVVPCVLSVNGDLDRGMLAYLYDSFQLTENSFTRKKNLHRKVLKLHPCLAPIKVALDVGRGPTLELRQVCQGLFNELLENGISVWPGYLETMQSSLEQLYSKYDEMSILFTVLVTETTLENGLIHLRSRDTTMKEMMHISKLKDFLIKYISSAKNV
# Assay: Exonuclease inhibition assay with human POLγ (SYBR Green I fluorescence)
# Type: biochemical
# Settings: POLγA 1 nM, POLγB 1.3 nM, 5 nM exonuclease template, no dNTPs, 37° C. 2.5 hours
# Experimental: Exonuclease inhibition assay with human POLγ.
# The ability of small molecules to inhibit the 3′-5′ exonuclease activity of POLγ was analyzed in a quantitative fluorescence SYBR Green I assay with fluorescence intensity (FI) readout.
# Human POLγ was incubated with a linear, partially double-stranded template containing an 85 base pair double-stranded DNA stretch and a 15 nucleotides long single-stranded 5′-tail (hereafter referred to as the “exonuclease template”). […] When bound to double-stranded DNA, SYBR Green I fluorescence increases by up to 100-fold. In the absence of deoxynucleotide triphosphates (dNTPs), the exonuclease activity of POLγ degrades the 85-mer strand, which leads to the formation of single-stranded DNA (ssDNA) and decreased fluorescent intensity. The assay was performed in a 384-well plate format.
# The exonuclease template used was generated by hybridization of a 100 nucleotides long, single-stranded DNA molecule with an inverted dT at the 3′-end (5′-TTTTTTTTTATCCGGGCTCGTTATCTAAGCTGCTCTTGGTAGGCATTGACGTCCATACTGCAAATTCAGCTCTGTGCAGTTAGGCAGGAGTCTACAAGC invT-3′) to an 85 nucleotides long single-stranded DNA molecule (5′-AGCTTGTAGACTCCTGCCTAACTGCACAGAGCTGAATTTGCAGTATGGACGTCAATGCCTACCAGAGCAGCTTAGATAACGAGC-3′), using a Bio-Rad T100 Thermal Cycler. The inverted dT is characterized by a 3′-3′ linkage, which inhibits both degradation of the 3′-5′ exonuclease activity and extension by DNA polymerases.
# POLγ is an heterotrimer of one POLγA subunit (harboring exonuclease and DNA polymerase activities) and two accessory POLγB subunits. Proteins used in the exonuclease assay were POLγA (NP_002684) and POLγB (NP_009146).
# The protein mixture used in the assays contained POLγA (1 nM), POLγB (1.3 nM, concentration calculated as a dimer), 25 mM Tris-HCl (pH 8.0), 0.1 mg/mL bovine serum albumin, 1 mM Bond-Breaker TCEP solution (pH 7) [Thermo Fisher], 25 mM NaCl, and 0.02% Triton X-100.
# The DNA template mixture used in the assay contained 5 nM of the exonuclease template, 25 mM Tris-HCl (pH 8.0), 10 mM MgCl2, 0.1 mg/mL bovine serum albumin, 1 mM Bond-Breaker TCEP solution [Thermo Fisher], and 0.02% Triton X-100.
# Microplates with compounds (0.1 μL in each well) to be tested in the assay were prepared from 10 mM compound stocks in 100% DMSO, and equal amounts of DMSO without any compound were added to positive and negative control wells.
# The protein mixture containing POLγ was dispensed (5 μL in each well) into compound plates and incubated at 37° C. for 15 minutes to allow compound binding to the POLγ complex. After incubation, 5 μL of the DNA template mixture was dispensed into each well. The plates were incubated at 37° C. for 2.5 hours.
# During incubation, a combined stop buffer and detection reagent solution was prepared. The buffer contained 25 mM EDTA (pH 8.0), 0.02% Triton X-100, and SYBR Green I [Invitrogen] diluted 10,000× (for fluorescent readout). EDTA will stop the enzymatic reaction by chelating magnesium ions.
# After the 2.5-hour incubation period, the SYBR Green I solution was added (10 μL) to the screening plates and the plates were incubated at room temperature in the dark for 20 minutes before the fluorescent signal was read between […] on a BMG Pherastar microtiter plate reader.
row,Compound,IC50 [µM]
1,"Cc1ccc(C)c(S(=O)(=O)Nc2cccc(C(=O)N3CCCCC3C#N)c2)c1 (stereo not shown) [Example 2, N-(3-(2-cyanopiperidine-1-carbonyl)phenyl)-2,5-dimethylbenzenesulfonamide]",4
2,"Cc1ccc(C)c(S(=O)(=O)Nc2cccc(C(=O)N3CCCCC3)c2)c1 [Example 3, 2,5-dimethyl-N-(3-(piperidine-1-carbonyl)phenyl)benzene sulfonamide]",10
3,"Cc1ccc(C)c(S(=O)(=O)Nc2cccc(C(=O)N3CCCC[C@@H]3C)c2)c1 [Example 6, (S)-2,5-dimethyl-N-(3-(2-methylpiperidine-1-carbonyl)phenyl)benzenesulfonamide]",12
4,"(R)-2,5-dimethyl-N-(3-(3-methylmorpholine-4-carbonyl)phenyl)benzenesulfonamide [Example 1]",7
5,"Cc1ccc(C)c(S(=O)(=O)Nc2cccc(C(=O)NCC3CC3)c2)c1 [Example 4, N-(cyclopropylmethyl)-3-((2,5-dimethylphenyl)sulfonamido)benzamide]",48
6,"Cc1cc(S(=O)(=O)Nc2cccc(-c3ncco3)c2)c(C)cc1Cl [Example 17, 4-chloro-2,5-dimethyl-N-(3-(oxazol-2-yl)phenyl)benzenesulfonamide]",> 100
7,"Cc1cc(S(=O)(=O)Nc2cccc(C(=O)N(C)C)c2)c(C)cc1Cl [Example 12, 3-((4-chloro-2,5-dimethylphenyl)sulfonamido)-N,N-dimethylbenzamide]",5
8,"Cc1cc(S(=O)(=O)Nc2cccc(C(=O)N3CCCC[C@H]3C)c2)c(C)cc1Cl [Example 9, (R)-4-chloro-2,5-dimethyl-N-(3-(2-methylpiperidine-1-carbonyl)phenyl)benzenesulfonamide]",2
9,"Cc1cc(S(=O)(=O)Nc2cccc(C(=O)NCc3ccccc3)c2)c(C)cc1Cl [Example 11, N-benzyl-3-((4-chloro-2,5-dimethylphenyl)sulfonamido)benzamide]",> 100
10,"Cc1ccc(C)c(S(=O)(=O)Nc2cccc(C(=O)N3CCOCC3C#N)c2)c1 (stereo not shown) [Example 7, N-(3-(3-cyanomorpholine-4-carbonyl)phenyl)-2,5-dimethylbenzenesulfonamide]",1
11,"Cc1cc(S(=O)(=O)Nc2cccc(C(=O)N(C)C(C)CO)c2)c(C)cc1Cl (single isomer, unassigned) [Example 14, 3-((4-chloro-2,5-dimethylphenyl)sulfonamido)-N-(1-hydroxypropan-2-yl)-N-methylbenzamide]",3

# More lines, in order of falling IC50, values ahead:
row,IC50 [µM],Compound
1,81,"Cc1cc(S(=O)(=O)Nc2cccc(-c3ccn(C)n3)c2)c(C)cc1Cl [Example 18, 4-chloro-2,5-dimethyl-N-(3-(1-methyl-1H-pyrazol-3-yl)phenyl)benzenesulfonamide]"
2,12,"Cc1cc(S(=O)(=O)Nc2cccc(-c3nccs3)c2)c(C)cc1Cl [Example 16, 4-chloro-2,5-dimethyl-N-(3-(thiazol-2-yl)phenyl)benzenesulfonamide]"
3,9,"Cc1ccc(C)c(S(=O)(=O)Nc2cccc(C(=O)N[C@@H](C)C3CC3)c2)c1 [Example 8, (S)-N-(1-cyclopropylethyl)-3-((2,5-dimethylphenyl)sulfonamido)benzamide]"
4,8,"Cc1cc(S(=O)(=O)Nc2cccc(-c3nccn3C)c2)c(C)cc1Cl [Example 19, 4-chloro-2,5-dimethyl-N-(3-(1-methyl-1H-imidazol-2-yl)phenyl)benzenesulfonamide]"
5,6,"Cc1cc(S(=O)(=O)Nc2ccc3c(c2)CC(=O)N3)c(C)cc1Cl [Example 185, 4-chloro-2,5-dimethyl-N-(2-oxoindolin-5-yl)benzenesulfonamide]"
6,6,"Cc1cc(S(=O)(=O)Nc2cc(F)cc(C(=O)N3CCC[C@H]3C)c2)c(C)cc1Cl [Example 13, (R)-4-chloro-N-(3-fluoro-5-(2-methylpyrrolidine-1-carbonyl)phenyl)-2,5-dimethylbenzenesulfonamide]"
7,3,"Cc1ccc(C)c(S(=O)(=O)Nc2cccc(C(=O)N3CCCC[C@H]3C)c2)c1 [Example 5, (R)-2,5-dimethyl-N-(3-(2-methylpiperidine-1-carbonyl)phenyl)benzenesulfonamide]"
8,0.8,"Cc1cc(S(=O)(=O)Nc2cccc(C(=O)N3CCC[C@H]3C)c2)c(C)cc1Cl [Example 10, (R)-4-chloro-2,5-dimethyl-N-(3-(2-methylpyrrolidine-1-carbonyl)phenyl)benzenesulfonamide]"
